The values that follow come from US20220017941A1, “ELECTROANALYTICAL DETERMINATION OF LEUKOCYTE ESTERASE” (Board of Regents, the University of Texas System, priority 2020, published 2022).

Series [1] in a line: Non-enzymatic hydrolysis in assay solution (steady current steps before LE addition). In kind it is physicochemical. As to conditions: pH 7.40 PBS assay solution, <200 s. The protocol: (§1) The assay solution (5.00 mL) was made of pH 7.40 PBS containing both methyl pyruvate (MP) and alcohol oxidase (AOx). The current flowing through a N-CNT electrode at −0.20 V was measured continuously while a stirred assay solution was sequentially spiked with three 50-μL calibrating aliquots of H2O2 and one 50-μL aliquot of LE. This produced an ICECEA amperogram with the three current steps providing a calibration slope CS and an ascending linear current segment having an assay slope AS. The ICECEA amperograms shown were shortened to display only the linear portion of ascending current segment.
The slope of current segments at >200 s increased with the concentration of MP in a solution.

The next series is described as follows: Solubility in water. In kind it is physicochemical.
Another series concerns leukocyte esterase (LE). The series can be described thus: Internally calibrated electrochemical continuous enzyme assay (ICECEA) of LE with ester substrate coupled to alcohol oxidase. In kind it is biochemical, human. As to conditions: pH 7.40 PBS. The protocol: The original suspension of human leukocytes was diluted 10 times with a pH 7.40 0.050 M phosphate buffer saline (PBS, 154 mM NaCl) solution that contained 10 vol. % DMSO and left for 10 min to lyse the leukocytes chemically. The suspension was then sonicated for 30 s (Q125 Qsonica, 20% power) to complete the lysing process. The sonication was done in 5 s intervals with 5 s rest cycles to minimize the enzyme deactivation due to solution overheating. The lysate was centrifuged at 10000×g for 5 min, and the supernatant was transferred to a 1.70-mL microcentrifuge tube (Corning, N.Y.) and stored in a freezer at −20° C. when not in use.
Assays. The assays of LE were conducted at a N-CNT electrode by following the protocol of internally calibrated electrochemical continuous enzyme assay (ICECEA) (Zhang et. al., M.; Anal. Chem. 2013, 85, 6026-6032; Bekhit et. al., Anal. Chem. 2019, 91, 3163-3169).
as §1
The AS and CS slopes were used to calculate the unit U of the enzymatic activity of LE:
By definition, one unit (U) of activity was equal to the amount of LE that consumed 1.0 micromole of MP per 1.0 min in a pH 7.40 PBS solution at room temperature (21° C.).
Kinetic Testing. The hypothesis formulated above was tested first by determining the kinetics of reaction 1. To ensure that the reaction was rate-limiting, the excess of AOx (25 mU) over LE (3 mU) was used. In addition, the concentration of H2O2 was kept within a linear range of calibration plot (0.50-40 μM) to avoid the non-linearity of electrode response to H2O2 from affecting kinetic measurements.
Assay of LE. The analytical merit of the coupling of reactions 1 and 2 via methanol was evaluated by using the MP to assay LE in PBS samples. To conduct the assay under the zero-order kinetics, the high concentration of MP was selected (88 μM, >10Km).
Control Experiments with Small Esters Other Than Methyl Pyruvate. […] The data in FIG. 7 underline the uniqueness of the methyl pyruvate-based method for the quantification of LE as a biomarker of infection.

The mark [2] stands for this setting: 1.4 nM LE, 25 mU AOx, 1-40 μM MP, Michaelis-Menten fit, RSD<10%.

SMILES strings stand for the structures.

Turning to `COC(=O)C(C)=O` [MP, Methyl pyruvate], in series [1], the non-enzymatic hydrolysis result is reported as “slow on the experimental time scale”. Besides, the solubility in water entry in the series “Solubility in water” is on record as “good solubility in water”. Moreover, in the series on leukocyte esterase (LE) (setting [2]), the “specificity constant kcatKm^−1” value was 2.3e+06 M⁻¹ s⁻¹ and the turnover number kcat was 15 s⁻¹. Also, in the series with leukocyte esterase (LE) (88 μM ester, 25 mU AO, N-CNT electrode −0.20 V, FIG. 7), the “recognition of ester by LE as substrate (ascending current segment after LE addition at 200 s)” value was “produced the ascending current segment”. In addition, the “average specific activity of LE reacting with MP (slope of LE activity vs. LE concentration)” value with leukocyte esterase (LE) (88 μM MP, 25 mU AOx, linear up to 260 μg L^−1 LE) is recorded as 12 U mg^−1.
